PMC7725785, “TRIB3 promotes MYC-associated lymphoma development through suppression of UBE3B-mediated MYC degradation” (Nature Communications, 2020)

How the values were obtained:
[1] = tested on: MYC ubiquitination; assay: MYC ubiquitination in PCON- and PCM4-treated Raji cells; type: cell-based, human; settings: lymphoma cells; result in words
[2] = tested on: RNAPII; assay: ChIP-seq of RNAPII occupancy in Raji cells; type: cell-based, human; settings: ChIP-seq with spike-in, result in words
Method: ChIP assays were performed according to the manufacturer’s protocol using a SimpleChIP® Plus Sonication Chromatin IP Kit (Cell Signaling Technology, Danvers, MA, USA, (#56383). Briefly, cells were fixated with 1% formaldehyde (Sigma Aldrich, F8775) for 8 min, incubated with glycine (50 mM final) for 10 min and washed three times with PBS. After cell lysis and chromatin extraction, chromatin was sonicated to 100–500 bp using a BioRuptor sonicator (Diagenode), followed by centrifugation at 16,000×g for 10 min at 4 °C. To control for experimental variation, our spike-in data were normalized to a spike-in control consisting of a small amount of chromatin from another species. Briefly, Baf3 cell lysates were sonicated exactly as described above and added at a 1:100 ratio of Raji cells to lysates. […] The Qubit® 3.0 A fluorometer was used for quantitation of the ChIP library. […]
The ChIP libraries were sequenced on Illumina HiSeq platform in 150 bp paired-end reads. After quality control, the clean reads were aligned to the human reference genome (Homo sapiens. GRCh38.87v2) with Bowtie v2.1.0. Unambiguously mapped reads were retained for subsequent generation of binding profiles, heatmaps and calling of peaks. […] Mapped reads were visualized using the Integrative Genomics Viewer (IGV). We next used the murine spike-in to quantitatively normalize different samples. […]

[3] = tested on: murine Myc^Eμ lymphoma cells in NSG mice; assay: Limiting dilution transplantation of BCL cells into NSG mice (survival of secondary recipients); type: in vivo, mouse; settings: NSG mice injected i.p. with lymphoma cells from PCM4 (2 mg/kg) group versus PCON group, 70 days; result in words
Source text: (§1) To evaluate the survival rate of secondary recipients, these mice were monitored for 70 days. For the evaluation of IHC staining and protein expression, three mice of each group were killed at the end of treatment, and the thymuses, spleens and LNs were collected for pathology detection, Co-IP, and western blot assays.

[4] = tested on: TRIB3-MYC interaction and MYC expression; assay: TRIB3/MYC Co-IP and MYC immunoblot in spleens and LNs of treated Myc^Eμ mice; type: in vivo, mouse; settings: Myc^Eμ mice; result in words
Method: as §1
Co-IP experiments were performed as described previously. Briefly, cells were collected and lysed for 30 min on ice. Soluble lysates were incubated with the indicated antibodies at 4 °C overnight, followed by incubation with Protein A/G Plus-Agarose (Santa Cruz Biotechnology, TX, USA) at 4 °C for 2 h. Soluble lysates were incubated with the indicated Anti-Myc magnetic beads (Bimake.com, B26302), Anti-Flag Affinity Gel (Bimake.com, B23102) or Anti-HA Affinity Gel (Bimake.com, B23302) at 4 °C overnight. Immunocomplexes were separated from the beads and then boiled for 10 min. The precipitated proteins were subjected to SDS-PAGE and blotted with specific antibodies. For immunoblotting assays, proteins were extracted from cells, spleens, or lymphoma tissues using RIPA buffer (Cell Signaling Technology, MA, USA). A BCA Protein Assay Kit was used to determine protein concentrations. Protein extracts were separated by SDS-PAGE, transferred onto PVDF membranes, and subjected to immunoblot analysis. […]

[5] = tested on: DLBCL^T64 PDX; assay: PDX model tumor growth and weight, DLBCL T64; type: in vivo, human; settings: result in words
Method: (§2) Four 5-week-old male NSG mice were implanted subcutaneously with 200 μl of a 1:1 mixture of Matrigel® Basement Membrane Matrix High Concentration (Corning, 354230) and minced fresh tumor fragments resected from lymphoma patients. Approximately 3–4 weeks following implantation, the first-generation mice (G1) were killed, and tumor masses were isolated. The tumor cells were tested for human CD19 (BCL) or CD3 expression (T cell lymphoma), and the remaining tumor mass was cut into 3-mm^3 sections and passaged into 4–5 NSG mice as the second generation (G2). After stable passage of the third generation (G3), the tumor mass of the fourth generation (G4) was equally cut into 3-mm^3 pieces and then passaged subcutaneously into 30–50 NSG mice (100 μl of a 1:2 mixture of Matrigel and tumor tissue) for in vivo treatment (6–8 mice per group, dependent on the experimental drug treatment). During and after treatment with the vehicle control or the indicated agent, tumor burden was evaluated by measuring the tumor volume to determine the therapeutic efficacy in the PDX models. […]
(§3) To evaluate the survival rate, these mice were monitored for 8 months (Myc^Eμ mice). […] During the indicated treatments, tumor burden was evaluated by measuring the tumor volume to determine the therapeutic efficacy in the PDX models.

[6] = tested on: TLBL^T123 PDX; assay: PDX model tumor growth and weight, T-LBL T123; type: in vivo, human; settings: result in words
Method: as §2, §3

[7] = Serum ALT, AST, UREA and CRE (liver and renal function) in treated Myc^Eμ mice; settings: UREA, CRE, result in words
Source text: The serum alanine transaminase (ALT) and aspartate transaminase (AST) levels of MycEµ mice with the indicated
treatment were detected to evaluate liver function (n = 6 per group). Data are represented as means ± SEM. (b) Th e
serum UREA and creatinine (CRE) levels of MycEµ mice with the indicated treatment were detected to evaluate
renal function (n = 6 per group). Data are represented as means ± SEM.

HLYVSPWGGKRREQLKHKLEQLR [PCM4]
MYC ubiquitination and degradation [1]: rescued MYC ubiquitination and degradation | association of RNAPII with promoters [2]: globally reduced the association of RNAPII with promoters | survival rate of secondary recipients [3]: better survival rate | TRIB3-MYC interaction and MYC expression in the LNs and spleens [4]: decrease in the TRIB3-MYC interaction and MYC expression | growth and weights of tumors, combination of PCM4 and DOX ([5]; PDX T64 (high TRIB3 and MYC expression), PCM4 5 mg/kg and DOX 2 mg/kg): further decreased the growth and weights of tumors | tumor growth of PDX ([5]; PDX T64, NSG mice, PCM4 5 mg/kg i.v. three times a week): inhibited the tumor growth | growth and weights of tumors, combination of PCM4 and DOX ([6]; PDX T123 (high TRIB3 and MYC expression), PCM4 5 mg/kg and DOX 2 mg/kg): further decreased the growth and weights of tumors | tumor growth of PDX ([6]; PDX T123, NSG mice, PCM4 5 mg/kg i.v. three times a week): inhibited the tumor growth | toxic effects (renal/liver function assays) [7]: did not exert obvious toxic effects
